This assay addresses T1, NR2B subunit of NMDA receptor (Rattus norvegicus, UniProt Q00960).
T1 construct: gene Grin2b; native NMDA receptor in rat cerebral cortex membranes; with NR1
The class given is binding.

Like-named read-outs stand apart in the source and are kept apart here.

T1 sequence (Q00960 27-1482, other chains not shown): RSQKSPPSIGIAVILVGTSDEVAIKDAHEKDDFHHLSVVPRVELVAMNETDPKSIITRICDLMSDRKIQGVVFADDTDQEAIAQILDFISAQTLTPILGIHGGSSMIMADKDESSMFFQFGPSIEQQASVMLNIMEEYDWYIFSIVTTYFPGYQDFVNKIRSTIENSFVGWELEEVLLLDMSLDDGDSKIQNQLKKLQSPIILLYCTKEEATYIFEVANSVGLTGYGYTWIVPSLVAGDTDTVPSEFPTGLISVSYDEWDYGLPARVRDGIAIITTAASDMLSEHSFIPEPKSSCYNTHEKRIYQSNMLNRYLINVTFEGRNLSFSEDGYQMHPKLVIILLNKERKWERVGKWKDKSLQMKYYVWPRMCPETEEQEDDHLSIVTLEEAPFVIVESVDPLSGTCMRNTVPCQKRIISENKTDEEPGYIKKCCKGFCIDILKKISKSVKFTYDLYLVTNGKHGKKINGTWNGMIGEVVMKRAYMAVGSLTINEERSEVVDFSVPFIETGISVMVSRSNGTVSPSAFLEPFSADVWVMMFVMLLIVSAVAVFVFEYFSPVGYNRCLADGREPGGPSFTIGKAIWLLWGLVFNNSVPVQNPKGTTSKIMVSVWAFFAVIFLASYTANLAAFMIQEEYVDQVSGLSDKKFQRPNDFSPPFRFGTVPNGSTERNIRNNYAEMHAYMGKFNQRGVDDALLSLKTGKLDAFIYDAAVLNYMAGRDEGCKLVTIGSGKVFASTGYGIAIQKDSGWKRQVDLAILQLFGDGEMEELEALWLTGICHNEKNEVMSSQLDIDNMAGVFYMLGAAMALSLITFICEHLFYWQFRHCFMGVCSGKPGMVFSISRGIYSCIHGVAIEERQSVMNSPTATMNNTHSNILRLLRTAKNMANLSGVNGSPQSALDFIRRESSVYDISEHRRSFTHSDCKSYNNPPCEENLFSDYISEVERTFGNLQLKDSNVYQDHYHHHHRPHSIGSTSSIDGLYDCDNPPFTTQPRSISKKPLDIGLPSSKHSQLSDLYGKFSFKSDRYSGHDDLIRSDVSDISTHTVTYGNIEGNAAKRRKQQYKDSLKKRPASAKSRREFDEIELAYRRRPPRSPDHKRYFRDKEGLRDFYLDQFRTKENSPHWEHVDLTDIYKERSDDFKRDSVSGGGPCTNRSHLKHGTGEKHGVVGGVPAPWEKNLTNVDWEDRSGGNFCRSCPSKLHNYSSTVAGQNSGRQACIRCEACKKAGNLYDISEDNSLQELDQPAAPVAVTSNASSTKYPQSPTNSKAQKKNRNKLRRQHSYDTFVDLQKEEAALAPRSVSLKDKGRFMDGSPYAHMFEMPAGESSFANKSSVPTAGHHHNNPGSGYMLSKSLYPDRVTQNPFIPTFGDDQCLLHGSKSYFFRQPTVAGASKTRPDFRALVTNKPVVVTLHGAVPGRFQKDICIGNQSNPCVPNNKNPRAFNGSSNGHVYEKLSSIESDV

As usually defined, the Ki is the dissociation constant of the complex between target and ligand, obtained from inhibition or displacement. As for `N=C(N)c1ccc2cc(OC(=O)c3ccc(N=C(N)N)cc3)ccc2c1` [nafamostat], the affinity, expressed as Ki, was 4.2 µM.

Turning to `N=C(N)c1ccc2cc(OC(=O)c3ccc(NC4=NCCN4)cc3)ccc2c1` [sepimostat, 6-amidino-2-naphthyl[4-(4,5-dihydro-1H-imidazol-2-yl)amino] benzoate dimethane sulfonate], the inhibition constant Ki (read-out: Ki) was determined as 27.7 µM.

(Values after paper PMC6938488, “Nafamostat and sepimostat identified as novel neuroprotective agents via NR2B N-methyl-D-aspartate receptor antagonism using a rat retinal excitotoxicity model” (Scientific Reports, 2019).)
